{"source": "ChEMBL document CHEMBL3856242", "about": "“Bioactive diterpenoids from Trigonostemon chinensis: Structures, NO inhibitory activities, and interactions with iNOS” (Bioorg Med Chem Lett, 2016)", "key": {"[1]": {"biological_target": "T1, Nitric oxide synthase, inducible (Mus musculus, UniProt P29477)", "T1 sequence (P29477 whole entry)": "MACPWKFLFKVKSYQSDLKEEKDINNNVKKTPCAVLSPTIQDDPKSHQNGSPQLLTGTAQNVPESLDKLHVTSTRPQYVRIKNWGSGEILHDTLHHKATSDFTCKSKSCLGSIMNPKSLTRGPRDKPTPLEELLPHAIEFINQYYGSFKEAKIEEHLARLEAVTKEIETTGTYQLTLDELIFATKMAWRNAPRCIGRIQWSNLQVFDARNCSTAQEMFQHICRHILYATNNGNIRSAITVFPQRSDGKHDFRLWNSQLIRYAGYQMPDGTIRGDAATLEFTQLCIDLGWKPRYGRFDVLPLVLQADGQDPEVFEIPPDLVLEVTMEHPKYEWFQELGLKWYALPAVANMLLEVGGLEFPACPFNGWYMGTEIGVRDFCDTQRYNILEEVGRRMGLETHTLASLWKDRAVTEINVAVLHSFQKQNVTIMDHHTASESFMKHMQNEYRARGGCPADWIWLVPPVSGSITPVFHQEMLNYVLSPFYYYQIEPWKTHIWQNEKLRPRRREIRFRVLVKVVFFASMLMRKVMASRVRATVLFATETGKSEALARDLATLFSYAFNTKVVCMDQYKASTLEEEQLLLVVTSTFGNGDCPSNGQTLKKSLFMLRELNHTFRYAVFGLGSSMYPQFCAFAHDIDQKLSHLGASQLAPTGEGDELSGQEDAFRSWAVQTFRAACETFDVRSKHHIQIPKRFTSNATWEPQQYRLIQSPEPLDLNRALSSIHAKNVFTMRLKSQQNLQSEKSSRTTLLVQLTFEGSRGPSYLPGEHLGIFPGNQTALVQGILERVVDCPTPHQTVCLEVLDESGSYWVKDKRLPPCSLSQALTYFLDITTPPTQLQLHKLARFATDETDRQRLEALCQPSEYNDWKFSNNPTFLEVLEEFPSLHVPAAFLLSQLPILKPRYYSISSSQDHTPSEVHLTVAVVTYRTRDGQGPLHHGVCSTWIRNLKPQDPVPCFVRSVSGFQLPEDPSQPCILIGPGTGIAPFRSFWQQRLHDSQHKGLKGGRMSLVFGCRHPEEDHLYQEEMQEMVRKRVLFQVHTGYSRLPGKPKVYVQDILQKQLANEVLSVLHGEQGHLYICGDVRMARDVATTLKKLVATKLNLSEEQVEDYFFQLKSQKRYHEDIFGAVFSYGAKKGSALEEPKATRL", "experiment": "Inhibition of iNOS in mouse BV2 cells assessed as inhibition of LPS-induced NO production after 20 hrs by Griess reaction", "format": "cell-based, BV-2"}, "[2]": {"species_on_record": "Mus musculus", "experiment": "Cytotoxicity against mouse BV2 cells at IC50 by MTT assay", "format": "toxicity, cell-based", "settings": "bv-2"}}, "data": [{"smiles": "CSC(=N)N.O=S(=O)(O)O", "values": [{"measurement": "IC50", "setting": "[1]", "value": 1.8, "unit": "µM"}, {"measurement": "Activity", "setting": "[2]", "value": "Non-Toxic"}]}, {"smiles": "C=C(C)[C@@]1(OC(C)=O)[C@H](OC(C)=O)[C@@H]2[C@H](OC(C)=O)[C@@]3(C)O[C@@]4([C@@H]3OC(=O)c3ccccc3)[C@@H](OC(C)=O)[C@@H](C)C[C@H]4[C@@]2(O)[C@H](C)[C@@H]1OC(=O)c1ccccc1", "values": [{"measurement": "IC50", "setting": "[1]", "value": 7.5, "unit": "µM"}, {"measurement": "Activity", "setting": "[2]", "value": "Non-Toxic"}]}, {"smiles": "Cc1cc2c(cc1O)[C@@]1(C)CC[C@H](O)C(C)(C)[C@@H]1CC2", "values": [{"measurement": "IC50", "setting": "[1]", "value": 5.9, "unit": "µM"}, {"measurement": "Activity", "setting": "[2]", "value": "Non-Toxic"}]}, {"smiles": "C=C(C)[C@@]1(O)[C@@H]2OC3(c4ccccc4)O[C@H]1[C@@H](C)[C@@]1(O3)[C@H]2[C@H](O)[C@@](C)(OC(=O)c2ccccc2)[C@@H](OC(C)=O)[C@@]2(O)[C@H]1C[C@H](C)[C@@H]2O", "values": [{"measurement": "IC50", "setting": "[1]", "value": "> 30", "unit": "µM"}, {"measurement": "Activity", "setting": "[2]", "value": "Non-Toxic"}]}, {"smiles": "C=C(C)[C@@]1(OC(=O)c2ccccc2)[C@H](OC(C)=O)[C@@H]2[C@H](OC(C)=O)[C@@]3(C)O[C@@]4([C@@H]3OC(=O)c3ccccc3)[C@@H](OC(C)=O)[C@@H](C)C[C@H]4[C@@]2(O)[C@H](C)[C@@H]1OC(C)=O", "values": [{"measurement": "IC50", "setting": "[1]", "value": 13.4, "unit": "µM"}, {"measurement": "Activity", "setting": "[2]", "value": "Non-Toxic"}]}, {"smiles": "Cc1cc2c(cc1O)C=C1CC[C@H](O)C(C)(C)[C@@H]1CC2", "values": [{"measurement": "IC50", "setting": "[1]", "value": 3.8, "unit": "µM"}, {"measurement": "Activity", "setting": "[2]", "value": "Non-Toxic"}]}, {"smiles": "C=C(C)[C@@]1(O)[C@@H]2OC3(c4ccccc4)O[C@H]1[C@@H](C)[C@@]1(O3)[C@H]2[C@H](OC(C)=O)[C@@](C)(OC(=O)c2ccccc2)[C@@H](OC(C)=O)[C@@]2(O)[C@H]1C[C@H](C)[C@@H]2O", "values": [{"measurement": "IC50", "setting": "[1]", "value": 10.2, "unit": "µM"}, {"measurement": "Activity", "setting": "[2]", "value": "Non-Toxic"}]}]}
